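1) Cells in 96-well plates. 2) Compound, 48 h, 5 concentrations. 3) Linear interpolation between surrounding doses. 4) Unreached endpoint = highest concentration. TGI is the concentration that stops growth completely.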 Bounds are passed on as bounds.

Among the test systems are SNB-75 CNS; RPMI-8226 leukemia; UACC-62 melanoma; HCC-2998 colon; MOLT-4 leukemia; OVCAR-4 ovarian; SK-MEL-28 melanoma; MDA-MB-435; PC-3 prostate; MALME-3M melanoma; A549 NSCLC; SW-620 colon; 786-0 renal; NCI-H522 lung; DU-145 prostate; SN12C renal; HS 578T breast; COLO 205 colon; MCF7 breast.
Test in all cases: growth of human tumour cells (NCI), 48 h

As to `O=C1C(=O)N(C2CCCCC2)C(=S)N1C1CCCCC1`, the TGI in the assay with SNB-75 CNS, in the assay on RPMI-8226 leukemia, with UACC-62 melanoma, with HCC-2998 colon, in the assay with MOLT-4 leukemia and in the assay on OVCAR-4 ovarian was > 100 µM throughout. The TGI in the assay on SK-MEL-28 melanoma, in the assay with MDA-MB-435, in the assay with PC-3 prostate, in the assay on MALME-3M melanoma, with A549 NSCLC and in the assay on SW-620 colon was > 100 µM each time. The TGI with 786-0 renal, in the assay on NCI-H522 lung, in the assay with DU-145 prostate, with SN12C renal, in the assay with HS 578T breast and with COLO 205 colon was > 100 µM throughout.

Take `CCOC(CCCN1CCC2(CC1)C(=O)N(C)CN2c1ccccc1)(OCC)c1ccc(F)cc1`: the TGI is 43.8 µM in the assay with SNB-75 CNS; 29.9 µM with RPMI-8226 leukemia; 13.8 µM with MCF7 breast; 34.3 µM in the assay with UACC-62 melanoma; 21.3 µM with HCC-2998 colon; 22.6 µM in the assay on MOLT-4 leukemia. Besides, the TGI in the assay on SK-MEL-28 melanoma came to 30.5 µM; in the assay with PC-3 prostate, 29.6 µM; in the assay on MALME-3M melanoma, 31.2 µM; in the assay on A549 NSCLC, 23.9 µM; in the assay with SW-620 colon, 28.7 µM; in the assay on 786-0 renal, 27.7 µM. The TGI with NCI-H522 lung was 34.2 µM; in the assay with DU-145 prostate, 46.5 µM; with SN12C renal, 21.9 µM; with COLO 205 colon it was 6.88 µM.

Take `CN1C(=O)C(O)CC1c1cccc(F)c1` (stereo not given): the TGI with SNB-75 CNS, in the assay with RPMI-8226 leukemia, in the assay with MCF7 breast, in the assay on UACC-62 melanoma, in the assay on HCC-2998 colon and in the assay with MOLT-4 leukemia was > 100 µM in each case. Moreover, the TGI in the assay with OVCAR-4 ovarian, in the assay with SK-MEL-28 melanoma, in the assay on MDA-MB-435, in the assay with PC-3 prostate, in the assay with MALME-3M melanoma and with A549 NSCLC was > 100 µM each time. The TGI with SW-620 colon, in the assay with 786-0 renal, in the assay with NCI-H522 lung, in the assay with DU-145 prostate, with SN12C renal and in the assay with COLO 205 colon was > 100 µM in each case.

Consider `CC(=O)Nc1ccc(N2C(=O)/C(=C\c3cccc(Oc4ccccc4)c3)SC2c2ccccc2)cc1` (stereo not given), for which the TGI in the assay with RPMI-8226 leukemia is 58.3 µM; with MCF7 breast, 65.8 µM; with UACC-62 melanoma it was > 100 µM; in the assay on HCC-2998 colon, > 100 µM; in the assay with MOLT-4 leukemia it was 68.5 µM; in the assay on OVCAR-4 ovarian it was > 100 µM. For the same compound, the TGI in the assay on SK-MEL-28 melanoma was 76.1 µM; with MDA-MB-435, > 100 µM; with MALME-3M melanoma it was 62.4 µM; in the assay with A549 NSCLC, > 100 µM; with SW-620 colon, > 100 µM; in the assay with 786-0 renal it was > 100 µM. Also, the TGI was 58.4 µM with NCI-H522 lung; > 100 µM in the assay with DU-145 prostate; 97 µM with SN12C renal; 66.3 µM with HS 578T breast; > 100 µM with COLO 205 colon.

`CC(C)(C)OC(=O)CN1CCNCCN(CC(=O)OC(C)(C)C)CC1`: the TGI was 68.7 µM with SNB-75 CNS; > 100 µM with RPMI-8226 leukemia; > 100 µM with MCF7 breast; > 100 µM with UACC-62 melanoma; > 100 µM in the assay on HCC-2998 colon; > 100 µM in the assay with MOLT-4 leukemia. In addition, the TGI with OVCAR-4 ovarian, in the assay on PC-3 prostate, in the assay on MALME-3M melanoma, with A549 NSCLC, in the assay with 786-0 renal and in the assay with NCI-H522 lung was > 100 µM in each case. For the same compound, the TGI in the assay on DU-145 prostate, in the assay on SN12C renal, with HS 578T breast and in the assay on COLO 205 colon was > 100 µM in each case.

For the compound `O=C(CC(C(=O)c1ccsc1)c1ccccc1)c1cccs1` (stereo not given), the TGI in the assay with SNB-75 CNS is > 100 µM; in the assay with RPMI-8226 leukemia, > 100 µM; in the assay on MCF7 breast, 79.6 µM; with UACC-62 melanoma, > 100 µM; in the assay on HCC-2998 colon, > 100 µM; in the assay with MOLT-4 leukemia, > 100 µM. Further, the TGI in the assay on OVCAR-4 ovarian, in the assay with SK-MEL-28 melanoma, with MDA-MB-435, in the assay on SW-620 colon, in the assay with 786-0 renal and in the assay with NCI-H522 lung was > 100 µM in each case. The TGI in the assay on DU-145 prostate, in the assay with SN12C renal, in the assay with HS 578T breast and in the assay with COLO 205 colon was > 100 µM throughout.

Regarding `Cc1cc(C)c(C)c(-n2[nH]c(=O)n(C)c2=O)c1C`, the TGI in the assay with RPMI-8226 leukemia, in the assay on MCF7 breast, in the assay on UACC-62 melanoma, in the assay with MOLT-4 leukemia, in the assay on SK-MEL-28 melanoma and with MDA-MB-435 was > 100 µM each time. The TGI with PC-3 prostate, in the assay with A549 NSCLC, in the assay with SW-620 colon, in the assay on 786-0 renal, with DU-145 prostate and with SN12C renal was > 100 µM in each case. The TGI in the assay on HS 578T breast and in the assay with COLO 205 colon was > 100 µM each time.

Turning to `COC(=O)c1cc(-c2c[nH]cc2C(=O)OCc2ccccc2)cn1S(=O)(=O)c1ccc(C)cc1`, the TGI with SNB-75 CNS, with MCF7 breast, in the assay with UACC-62 melanoma, in the assay on HCC-2998 colon, in the assay on MOLT-4 leukemia and in the assay with OVCAR-4 ovarian was > 100 µM in each case. For the same compound, the TGI with PC-3 prostate, in the assay on MALME-3M melanoma, in the assay with A549 NSCLC, with 786-0 renal, in the assay on NCI-H522 lung and in the assay on DU-145 prostate was > 100 µM in each case. The TGI with SN12C renal, in the assay on HS 578T breast and in the assay with COLO 205 colon was > 100 µM throughout.

In the case of `O=C1C=CC(=O)c2c(O)c(N[C@@H](Cc3ccccc3)C(=O)OCc3ccccc3)c(Cl)c(O)c21`, the TGI in the assay on SNB-75 CNS, in the assay on RPMI-8226 leukemia, in the assay on UACC-62 melanoma, with HCC-2998 colon, in the assay with OVCAR-4 ovarian and in the assay on SK-MEL-28 melanoma was > 10 µM throughout. In addition, the TGI with MDA-MB-435, with PC-3 prostate, in the assay with MALME-3M melanoma, in the assay on A549 NSCLC, with SW-620 colon and in the assay on 786-0 renal was > 10 µM in each case. Further, the TGI in the assay with NCI-H522 lung was > 10 µM; with DU-145 prostate it was > 10 µM; with SN12C renal, > 10 µM; with HS 578T breast, > 10 µM; with COLO 205 colon, 6.71 µM.

On to `O=Cc1cc2c(o1)C(=O)c1ccccc1C2=O`, for which the TGI in the assay with SNB-75 CNS is 0.858 µM; in the assay with RPMI-8226 leukemia, > 100 µM; in the assay on MCF7 breast it was 0.581 µM; in the assay with UACC-62 melanoma it was 3.29 µM; in the assay on HCC-2998 colon, 3.43 µM; in the assay on MOLT-4 leukemia it was 4.56 µM. Moreover, the TGI stood at 2.26 µM in the assay with OVCAR-4 ovarian; 1.08 µM in the assay on SK-MEL-28 melanoma; 11.6 µM in the assay with PC-3 prostate; 0.37 µM with MALME-3M melanoma; 3.02 µM in the assay on A549 NSCLC; 1.02 µM in the assay on SW-620 colon. For the same compound, the TGI in the assay with 786-0 renal turned out to be 2.9 µM; with DU-145 prostate it was 0.427 µM; in the assay on SN12C renal it was 0.779 µM; with COLO 205 colon, 2.76 µM.

Turning to `Cc1cccc(Nc2cn(CCOc3ccccc3)c(=O)n(CCOc3ccccc3)c2=O)c1`, the TGI in the assay with RPMI-8226 leukemia, in the assay on MCF7 breast, with UACC-62 melanoma, in the assay with HCC-2998 colon, in the assay with MOLT-4 leukemia and with OVCAR-4 ovarian was > 100 µM throughout. Moreover, the TGI with SK-MEL-28 melanoma, in the assay with MDA-MB-435, in the assay on PC-3 prostate, in the assay on A549 NSCLC, with SW-620 colon and with 786-0 renal was > 100 µM each time. Also, the TGI with DU-145 prostate, in the assay with SN12C renal, in the assay on HS 578T breast and in the assay on COLO 205 colon was > 100 µM throughout.

Turning to `CO[C@@H](c1ccccc1)[C@H](O)[C@](O)(c1ccccc1)P(=O)(OC)OC`, the TGI in the assay with SNB-75 CNS, with RPMI-8226 leukemia, in the assay with UACC-62 melanoma, in the assay with HCC-2998 colon, in the assay with MOLT-4 leukemia and in the assay on OVCAR-4 ovarian was > 100 µM in each case. The TGI in the assay with SK-MEL-28 melanoma, with MDA-MB-435, in the assay with PC-3 prostate, in the assay with MALME-3M melanoma, in the assay with A549 NSCLC and in the assay with SW-620 colon was > 100 µM throughout. Moreover, the TGI with 786-0 renal, in the assay on NCI-H522 lung, with DU-145 prostate, in the assay with SN12C renal, in the assay on HS 578T breast and with COLO 205 colon was > 100 µM throughout.

Turning to `CC1=CCS(=O)(=O)C1C(O)C1=C(C)CCCC1(C)C` (stereo not given), the TGI with SNB-75 CNS, in the assay with RPMI-8226 leukemia, in the assay with MCF7 breast, in the assay on UACC-62 melanoma, in the assay with HCC-2998 colon and in the assay with MOLT-4 leukemia was > 100 µM each time. Besides, the TGI in the assay on OVCAR-4 ovarian, with SK-MEL-28 melanoma, in the assay with MDA-MB-435, in the assay on PC-3 prostate, in the assay with MALME-3M melanoma and in the assay on A549 NSCLC was > 100 µM each time. For the same compound, the TGI in the assay on SW-620 colon, in the assay on 786-0 renal, in the assay on NCI-H522 lung, in the assay with DU-145 prostate, with SN12C renal and in the assay with COLO 205 colon was > 100 µM throughout.
